Assay results: ChEMBL document CHEMBL3044636, “Effectiveness of five insecticides for the control of adults and young stages of Cacopsylla melanoneura (Förster) (Hemiptera: Psyllidae) in a semi-field trial” (2010)
Active and inactive are the calls of the source. The rule behind the calls is not given here.

Assays:
Cacopsylla melanoneura [1] = test: Insecticidal activity against young stage of Cacopsylla melanoneura in apple plant assessed as mortality at 187.5 g/ha treated for 7 days measured after 7 days relative to control; assay type: functional
Cacopsylla melanoneura [2] = test: Insecticidal activity against adult of Cacopsylla melanoneura in apple plant assessed as overwintered female mortality at 187.5 g/ha treated for 7 days measured after 1 day relative to control; assay type: functional
Cacopsylla melanoneura [3] = test: Insecticidal activity against adult of Cacopsylla melanoneura in apple plant assessed as overwintered female mortality at 187.5 g/ha treated for 14 days measured after 3 days relative to control; assay type: functional
Cacopsylla melanoneura [4] = test: Insecticidal activity against adult of Cacopsylla melanoneura in apple plant assessed as reduction of progeny per female at 187.5 g/ha treated for 1 hr measured after 7 days; assay type: functional, organism-based
Cacopsylla melanoneura [5] = test: Insecticidal activity against adult of Cacopsylla melanoneura in apple plant assessed as reduction of progeny per female at 187.5 g/ha treated for 14 days measured after 7 days; assay type: functional, organism-based
Cacopsylla melanoneura [6] = test: Insecticidal activity against adult of Cacopsylla melanoneura in apple plant assessed as overwintered female mortality at 187.5 g/ha treated for 7 days measured after 3 days relative to control; assay type: functional
Cacopsylla melanoneura [7] = test: Insecticidal activity against adult of Cacopsylla melanoneura in apple plant assessed as overwintered female mortality at 187.5 g/ha treated for 1 hr measured after 1 day relative to control; assay type: functional
Cacopsylla melanoneura [8] = test: Insecticidal activity against adult of Cacopsylla melanoneura in apple plant assessed as overwintered female mortality at 187.5 g/ha treated for 1 hr measured after 3 days relative to control; assay type: functional
Cacopsylla melanoneura [9] = test: Insecticidal activity against adult of Cacopsylla melanoneura in apple plant assessed as reduction of progeny per female at 187.5 g/ha treated for 7 days measured after 7 days; assay type: functional, organism-based
Cacopsylla melanoneura [10] = test: Insecticidal activity against young stage of Cacopsylla melanoneura in apple plant assessed as mortality at 187.5 g/ha treated for 1 hr measured after 7 days relative to control; assay type: functional
Cacopsylla melanoneura [11] = test: Insecticidal activity against young stage of Cacopsylla melanoneura in apple plant assessed as mortality at 187.5 g/ha treated for 14 days measured after 7 days relative to control; assay type: functional
Cacopsylla melanoneura [12] = test: Insecticidal activity against adult of Cacopsylla melanoneura in apple plant assessed as overwintered female mortality at 187.5 g/ha treated for 14 days measured after 1 day relative to control; assay type: functional
Cacopsylla melanoneura [13] = test: Insecticidal activity against adult of Cacopsylla melanoneura in apple plant assessed as overwintered female mortality at 16.6 g/ha treated for 1 hr measured after 3 days relative to control; assay type: functional
Cacopsylla melanoneura [14] = test: Insecticidal activity against adult of Cacopsylla melanoneura in apple plant assessed as overwintered female mortality at 16.6 g/ha treated for 7 days measured after 1 day relative to control; assay type: functional
Cacopsylla melanoneura [15] = test: Insecticidal activity against adult of Cacopsylla melanoneura in apple plant assessed as reduction of progeny per female at 16.6 g/ha treated for 14 days measured after 7 days; assay type: functional, organism-based
Cacopsylla melanoneura [16] = test: Insecticidal activity against adult of Cacopsylla melanoneura in apple plant assessed as reduction of progeny per female at 16.6 g/ha treated for 7 days measured after 7 days; assay type: functional, organism-based
Cacopsylla melanoneura [17] = test: Insecticidal activity against adult of Cacopsylla melanoneura in apple plant assessed as overwintered female mortality at 16.6 g/ha treated for 14 days measured after 3 days relative to control; assay type: functional
Cacopsylla melanoneura [18] = test: Insecticidal activity against adult of Cacopsylla melanoneura in apple plant assessed as overwintered female mortality at 16.6 g/ha treated for 7 days measured after 3 days relative to control; assay type: functional
Cacopsylla melanoneura [19] = test: Insecticidal activity against adult of Cacopsylla melanoneura in apple plant assessed as reduction of progeny per female at 16.6 g/ha treated for 1 hr measured after 7 days; assay type: functional, organism-based
Cacopsylla melanoneura [20] = test: Insecticidal activity against young stage of Cacopsylla melanoneura in apple plant assessed as mortality at 16.6 g/ha treated for 1 hr measured after 7 days relative to control; assay type: functional
Cacopsylla melanoneura [21] = test: Insecticidal activity against adult of Cacopsylla melanoneura in apple plant assessed as overwintered female mortality at 16.6 g/ha treated for 1 hr measured after 1 day relative to control; assay type: functional
Cacopsylla melanoneura [22] = test: Insecticidal activity against young stage of Cacopsylla melanoneura in apple plant assessed as mortality at 16.6 g/ha treated for 7 days measured after 7 days relative to control; assay type: functional
Cacopsylla melanoneura [23] = test: Insecticidal activity against adult of Cacopsylla melanoneura in apple plant assessed as overwintered female mortality at 16.6 g/ha treated for 14 days measured after 1 day relative to control; assay type: functional
Cacopsylla melanoneura [24] = test: Insecticidal activity against young stage of Cacopsylla melanoneura in apple plant assessed as mortality at 16.6 g/ha treated for 14 days measured after 7 days relative to control; assay type: functional

`CCOC(=O)NCCOc1ccc(Oc2ccccc2)cc1` [PHENOXYCARB] showed an Activity (Cacopsylla melanoneura [1]) of 91.7%, an Activity (Cacopsylla melanoneura [2]) of 40% and an Activity (Cacopsylla melanoneura [3]) of 53.3%. The Activity (Cacopsylla melanoneura [4]) was “Active”, the Activity (Cacopsylla melanoneura [5]) was “Active” and the Activity (Cacopsylla melanoneura [6]) was 60%. The Activity (Cacopsylla melanoneura [7]) was 3.3%, the Activity (Cacopsylla melanoneura [8]) was 16.7% and the Activity (Cacopsylla melanoneura [9]) was “Active”. It also gave an Activity (Cacopsylla melanoneura [10]) of 93.3%, an Activity (Cacopsylla melanoneura [11]) of 100% and an Activity (Cacopsylla melanoneura [12]) of 23.3%.
For `CC[C@H](C)[C@H]1O[C@]2(C=C[C@@H]1C)C[C@@H]1C[C@@H](C/C=C(\C)[C@@H](O[C@H]3C[C@H](OC)[C@@H](O[C@H]4C[C@H](OC)[C@@H](O)[C@H](C)O4)[C@H](C)O3)[C@@H](C)/C=C/C=C3\CO[C@@H]4[C@H](O)C(C)=C[C@@H](C(=O)O1)[C@]34O)O2.CO[C@H]1C[C@H](O[C@H]2[C@H](C)O[C@@H](O[C@@H]3/C(C)=C/C[C@@H]4C[C@@H](C[C@]5(C=C[C@H](C)[C@@H](C(C)C)O5)O4)OC(=O)[C@@H]4C=C(C)[C@@H](O)[C@H]5OC/C(=C\C=C\[C@@H]3C)[C@]54O)C[C@@H]2OC)O[C@@H](C)[C@@H]1O` [ABAMECTIN], the Activity (Cacopsylla melanoneura [13]) was 36.7%, the Activity (Cacopsylla melanoneura [14]) was 16.7% and the Activity (Cacopsylla melanoneura [15]) was “Active”. For the same molecule, the Activity (Cacopsylla melanoneura [16]) was “Active”, the Activity (Cacopsylla melanoneura [17]) was 60% and the Activity (Cacopsylla melanoneura [18]) was 30%. The Activity (Cacopsylla melanoneura [19]) was “Active”, the Activity (Cacopsylla melanoneura [20]) was 75% and the Activity (Cacopsylla melanoneura [21]) was 33.3%. The Activity (Cacopsylla melanoneura [22]) was 95%, the Activity (Cacopsylla melanoneura [23]) was 43.3% and the Activity (Cacopsylla melanoneura [24]) was 71.7%.
